# Patent US11806342B2, “Diiodohydroxyquinoline for the treatment of clostridium difficile infection” (Purdue Research Foundation, priority 2019, dated 2023)
# Where two headings read alike, the source gives them in different places.
# Columns and labels:
# Assay type in all cases: cell-based, Clostridium difficile
# C. difficile ATCC 43255 [1] = test: Initial screening of antiparasitic drugs, broth microdilution MIC; settings: Clostridioides difficile, ATCC43255
# Procedure: C. difficile strains were grown anaerobically on brain heart infusion supplemented (BHIS) agar plates at 37° C. for 48 hours. Afterwards, a bacterial solution equivalent to 0.5 McFarland standard was prepared and diluted in (BHIS) broth to achieve a bacterial concentration of about 5×10^5 CFU/mL. Drugs were added and serially diluted along the plates. Plates were then, incubated anaerobically at 37° C. for 48 hours. MICs reported in Table (1) are the minimum concentrations of the drugs that could completely suppress the visual growth of bacteria.
# [2] = test system: C. difficile ATCC BAA-1870; test: Spore inhibition assay; settings: C. difficile ATCC BAA-1870, ½×MIC or 1×MIC, five days
# Procedure: (§1) The spore inhibition assay was performed as described in previous reports to investigate the effect of diiodohydroxyquinoline on C. difficile spore formation. Briefly, […], the bacterial suspension was split into microcentrifuge tubes and drugs were added (in triplicates) at concentrations equal to ½×MIC or 1×MIC. Tubes were then, incubated anaerobically for five days at 37° C. Thereafter, an aliquot from each tube was diluted and plated on BHIS agar plates supplemented with 0.1% taurocholic acid, to count the total bacterial counts (vegetative bacteria+spores). The remaining solution was centrifuged, and the pellet was suspended in PBS, stored overnight at 4° C., and subsequently shock-heated at 70° C. for 30 minutes to kill the vegetative cells. The resulting solution was serially diluted and plated to determine the heat-resistant spore counts. Spore inhibition assay was performed as described in previous reports to investigate the effect of DIHQ on C. difficile spore formation. Briefly, log-phase cultures of C. difficile strains (ATCC BAA-1870, ATCC 43255, and NR-49277) were diluted in BHIS to an initial density of ˜10^6 CFU/mL. Afterwards, the bacterial suspension was split in small tubes and the drugs were added (in triplicates) at concentrations equal to ½×MIC or 1×MIC. Tubes were then incubated anaerobically for 5 days at 37° C. After that, an aliquot from each tube was diluted and plated on BHIS agar plates supplemented with 0.1% taurocholic acid, to count the total bacterial count (vegetative bacteria+spores). The remaining solution was centrifuged, and the pellet was suspended in PBS and stored overnight at 4° C. then shock heated at 70° C. for 30 minutes to kill the vegetative cells. The resulting solution was serially diluted and plated to determine the heat-resistant spore counts.
# C. difficile NR-49277 [3] = test: Spore inhibition assay; settings: C. difficile NR-49277, ½×MIC or 1×MIC, five days
# Procedure: as §1
# C. difficile ATCC 43255 [4] = test: Spore inhibition assay; settings: C. difficile ATCC 43255, ½×MIC or 1×MIC, five days
# Procedure: as §1
# [5] = test system: C. difficile ATCC BAA-1870; test: Time kill kinetics assay; settings: C. difficile ATCC BAA-1870, 5×MIC
# Procedure: (§2) Time kill kinetics assay. In order to examine the killing kinetics of DIHQ, a time kill kinetics assay was performed against Clostridium difficile ATCC BAA 1870 and C. difficile NR-49277 as described previously. […] Aliquots were collected from each treatment after 0, 4, 6, 8, 12, and 24 hours of incubation at 37° C. and subsequently serially diluted and plated for viable CFU/mL determination.
# C. difficile NR-49277 [6] = test: Time kill kinetics assay; settings: C. difficile NR-49277, 5×MIC
# Procedure: as §2
# C. difficile ATCC 9689 = test: MIC and MBC, broth microdilution; settings: Clostridioides difficile, ATCC9689
# Procedure: (§3) MIC50 and MIC90 are the minimum concentration of each agent that inhibited growth of 50% and 90% of the tested isolates, respectively. The minimum bactericidal concentration (MBC) of these drugs was tested by plating 5 μL from wells with no growth onto BHIS agar plates. The MBC was categorized as the lowest concentration that reduced bacterial growth by 99.9% MIC50 and MIC90 are the minimum concentration of each agent that inhibited the growth of 50% and 90% of the tested isolates, respectively. The minimum bactericidal concentration (MBC) of these drugs was tested by plating 5 μL from wells with no growth onto BHIS agar plates. The MBC was categorized as the lowest concentration that reduced bacterial growth by 99.9% [29-31].
# C. difficile P24 = test: MIC and MBC, broth microdilution; settings: Clostridioides difficile
# Procedure: as §3
# C. difficile P13 = test: MIC and MBC, broth microdilution; settings: Clostridioides difficile
# Procedure: as §3
# C. difficile I4 = test: MIC and MBC, broth microdilution; settings: Clostridioides difficile, I4
# Procedure: as §3
# C. difficile P1 = test: MIC and MBC, broth microdilution; settings: Clostridioides difficile, P1
# Procedure: as §3
# C. difficile ATCC 700057 = test: MIC and MBC, broth microdilution; settings: Clostridioides difficile, ATCC700057
# Procedure: as §3
# C. difficile P7 = test: MIC and MBC, broth microdilution; settings: Clostridioides difficile, P7
# Procedure: as §3
# C. difficile HM-89 = test: MIC and MBC, broth microdilution; settings: Clostridioides difficile, HM89
# Procedure: as §3
# C. difficile NR-49286 = test: MIC and MBC, broth microdilution; settings: Clostridioides difficile, NR49286
# Procedure: as §3
# C. difficile NR-49284 = test: MIC and MBC, broth microdilution; settings: Clostridioides difficile, NR49284
# Procedure: as §3
# C. difficile NR-49281 = test: MIC and MBC, broth microdilution; settings: Clostridioides difficile, NR49281
# Procedure: as §3
# C. difficile I2 = test: MIC and MBC, broth microdilution; settings: Clostridioides difficile, I2
# Procedure: as §3
structure (smiles),measurement,setting,value
"Cc1ncc([N+](=O)[O-])n1CCO [Metronidazole, metronidazole]",MIC,"C. difficile ATCC 43255 [1]; initial screening, C. difficile ATCC 43255, read-out: MIC",0.25 µg/mL
same,reduction in spore count (in words),[2],almost no reduction
same,reduction in spore count (in words),C. difficile NR-49277 [3],almost no reduction
same,reduction in spore count (in words),C. difficile ATCC 43255 [4],almost no reduction
same,time required to generate a 3-log10 reduction in CFU/mL,[5]; 37° C.,12 hours
same,time required to generate a 3-log10 reduction in CFU/mL,C. difficile NR-49277 [6]; 37° C.,12 hours
same,MBC,"C. difficile ATCC 9689; C. difficile ATCC 9689, read-out: MBC",0.25 µg/mL
same,MBC,"C. difficile P24; C. difficile P24, read-out: MBC",0.25 µg/mL
same,MBC,"C. difficile P13; C. difficile P13, read-out: MBC",0.25 µg/mL
"CN[C@H](CC(C)C)C(=O)N[C@H]1C(=O)N[C@@H](CC(N)=O)C(=O)N[C@H]2C(=O)N[C@H]3C(=O)N[C@H](C(=O)N[C@H](C(=O)O)c4cc(O)cc(O)c4-c4cc3ccc4O)[C@H](O)c3ccc(c(Cl)c3)Oc3cc2cc(c3O[C@@H]2O[C@H](CO)[C@@H](O)[C@H](O)[C@H]2O[C@H]2C[C@](C)(N)[C@H](O)[C@H](C)O2)Oc2ccc(cc2Cl)[C@H]1O [Vancomycin, vancomycin]",MIC,C. difficile ATCC 43255 [1],1 µg/mL
same,reduction in spore count (in words),[2],almost no reduction
same,reduction in spore count (in words),C. difficile NR-49277 [3],almost no reduction
same,reduction in spore count (in words),C. difficile ATCC 43255 [4],almost no reduction
same,reduction of bacterial burden within 24 hours,[5]; 24 hours,1.7 log10 CFU/mL
same,reduction of bacterial burden within 24 hours,C. difficile NR-49277 [6]; 24 hours,1.22 log10 CFU/mL
same,MBC,C. difficile I4,0.5 µg/mL
same,MIC,C. difficile I4,0.5 µg/mL
same,MBC,C. difficile P1,0.5 µg/mL
same,MIC,C. difficile P1,0.5 µg/mL
same,MBC,C. difficile ATCC 700057,0.5 µg/mL
same,MIC,C. difficile ATCC 700057,0.5 µg/mL
same,MBC,C. difficile ATCC 9689,1 µg/mL
same,MIC,C. difficile ATCC 9689,0.5 µg/mL
same,MBC,C. difficile P7,0.5 µg/mL
same,MIC,C. difficile P7,0.5 µg/mL
same,MBC,C. difficile HM-89,1 µg/mL
same,MIC,C. difficile HM-89,1 µg/mL
same,MBC,C. difficile NR-49286,0.5 µg/mL
same,MIC,C. difficile NR-49286,0.25 µg/mL
same,MBC,C. difficile NR-49284,0.5 µg/mL
same,MIC,C. difficile NR-49284,0.25 µg/mL
same,MBC,C. difficile NR-49281,0.25 µg/mL
same,MIC,C. difficile NR-49281,0.25 µg/mL
same,MBC,C. difficile P24; P24,0.5 µg/mL
same,MIC,C. difficile P24; P24,0.5 µg/mL
same,MBC,C. difficile P13; P13,0.5 µg/mL
same,MIC,C. difficile P13; P13,0.5 µg/mL
same,MBC,C. difficile I2,1 µg/mL
same,MIC,C. difficile I2,1 µg/mL
